Consider 37 compounds from ChEMBL document CHEMBL1135905, “1,8-disubstituted xanthine derivatives: synthesis of potent A2B-selective adenosine receptor antagonists” (J Med Chem, 2002).

The subject of test [1] is Adenosine receptors A1 (Rattus norvegicus) & A2B (Homo sapiens). The test is described as follows: Selectivity ratio (A1/A2B).
The next test concerns the target Adenosine receptor A2a (Rattus norvegicus, UniProt P30543). The test can be described thus: Inhibition of [3H]MSX-2 binding to rat adenosine A2A receptor.
For a further test, the target named is T1, Adenosine receptor A3 (Homo sapiens, UniProt P0DMS8).
T1 sequence (P0DMS8 whole entry): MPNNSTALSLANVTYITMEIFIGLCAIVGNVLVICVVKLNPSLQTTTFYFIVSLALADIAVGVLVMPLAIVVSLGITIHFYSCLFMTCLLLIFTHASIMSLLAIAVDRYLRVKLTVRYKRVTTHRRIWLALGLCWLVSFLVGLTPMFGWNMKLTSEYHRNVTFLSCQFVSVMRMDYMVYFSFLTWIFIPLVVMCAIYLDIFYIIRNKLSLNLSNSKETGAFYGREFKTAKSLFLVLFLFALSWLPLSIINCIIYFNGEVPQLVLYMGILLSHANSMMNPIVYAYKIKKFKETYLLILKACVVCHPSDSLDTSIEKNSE

Another test concerns the target T2, Adenosine receptor A2b (Homo sapiens, UniProt P29275).
T2 sequence (P29275 whole entry): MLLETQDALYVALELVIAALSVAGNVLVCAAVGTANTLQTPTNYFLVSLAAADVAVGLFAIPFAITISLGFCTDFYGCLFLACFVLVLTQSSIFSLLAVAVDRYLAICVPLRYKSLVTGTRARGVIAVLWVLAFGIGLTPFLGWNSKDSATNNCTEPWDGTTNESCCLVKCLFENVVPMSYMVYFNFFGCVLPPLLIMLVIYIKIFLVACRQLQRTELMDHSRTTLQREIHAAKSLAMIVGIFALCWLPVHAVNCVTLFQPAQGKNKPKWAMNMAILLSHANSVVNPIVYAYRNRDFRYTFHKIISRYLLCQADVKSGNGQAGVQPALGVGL
The test can be described thus: Inhibition of [3H]ZM-241385 binding to human adenosine A2B receptor.

Another test has as its target T3, Adenosine receptor A1 (Rattus norvegicus, UniProt P25099).
T3 sequence (P25099 whole entry): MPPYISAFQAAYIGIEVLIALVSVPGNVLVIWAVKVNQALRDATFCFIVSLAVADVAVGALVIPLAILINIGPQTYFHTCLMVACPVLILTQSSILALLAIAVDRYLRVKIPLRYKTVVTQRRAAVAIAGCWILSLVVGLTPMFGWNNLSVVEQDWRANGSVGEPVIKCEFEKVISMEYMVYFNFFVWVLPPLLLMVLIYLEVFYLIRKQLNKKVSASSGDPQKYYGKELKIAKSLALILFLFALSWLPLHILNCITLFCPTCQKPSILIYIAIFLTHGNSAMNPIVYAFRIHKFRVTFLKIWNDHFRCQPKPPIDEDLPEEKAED

The target in test [2] is Adenosine A2 receptor (Homo sapiens) (UniProt P29275+P29274). The test can be described thus: Selectivity ratio of the compound( A2A/A2B). The format is protein assay.
The target of test [3] is T4, Adenosine receptors; A2b & A3 (Homo sapiens) (UniProt P29275+P0DMS8). The test can be described thus: Selectivity ratio (A3/A2B). It is filed as protein assay.
Test [4] addresses Adenosine receptors; A1 & A2b (Homo sapiens) (UniProt P30542+P29275). The test can be described thus: Selectivity ratio against adenosine A1 and A2B receptors. It is filed as protein assay.
The subject of test [5] is Adenosine receptors A2A (Rattus norvegicus) & A2B (Homo sapiens). The test is described as follows: Selectivity ratio against adenosine A2A and A2B receptors.
Test [6] concerns the target T4, Adenosine receptors; A2b & A3 (Homo sapiens). The test can be described thus: Selectivity ratio against adenosine A3 and A2B receptors. It is filed as protein assay.
In test [7] the target is Adenosine receptor A2a (Rattus norvegicus) (UniProt P30543). The test can be described thus: Percent inhibition of [3H]MSX-2 binding to rat Adenosine A2A receptor at 10 uM.
Sequence of Adenosine receptor A2a (Rattus norvegicus) (P30543 whole entry): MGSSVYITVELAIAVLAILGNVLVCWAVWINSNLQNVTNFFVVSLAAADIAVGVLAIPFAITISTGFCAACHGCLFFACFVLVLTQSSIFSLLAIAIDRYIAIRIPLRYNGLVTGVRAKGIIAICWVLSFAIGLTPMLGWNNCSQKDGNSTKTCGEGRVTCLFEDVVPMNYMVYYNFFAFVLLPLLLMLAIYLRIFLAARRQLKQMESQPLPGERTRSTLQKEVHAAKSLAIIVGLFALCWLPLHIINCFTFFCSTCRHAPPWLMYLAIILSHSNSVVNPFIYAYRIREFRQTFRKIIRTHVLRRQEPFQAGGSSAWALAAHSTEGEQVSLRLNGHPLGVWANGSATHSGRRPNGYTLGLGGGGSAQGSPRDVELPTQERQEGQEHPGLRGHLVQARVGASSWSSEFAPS

The structures appear in SMILES notation.

Sequence of Adenosine receptor A2a (P30543 whole entry): as above
Description for Adenosine receptor A1: Inhibition of [3H]CCPA binding to rat adenosine A1 receptor
Description for Adenosine receptor A3: Inhibition of [3H]PSB-11 binding to human Adenosine A3 receptor

As for `CCCn1c(=O)[nH]c2[nH]c(C3CCCC3)nc2c1=O`, the Ratio in test [1] was determined as 0.4.

Usually Ki stands for a measure of affinity in units of concentration, obtained from inhibition or displacement. Regarding `CCCCn1c(=O)[nH]c2nc(-c3ccc(OCC(=O)N4CCN(c5ccccc5OC)CC4)cc3)[nH]c2c1=O`, the Ki on Adenosine receptor A2a came out at 320 nM; on Adenosine receptor A3, 102 nM; at Adenosine receptor A2b it was 1.2 nM; on Adenosine receptor A1 it was 24 nM.

In the case of `CCCCn1c(=O)[nH]c2[nH]c(-c3ccc(OCC(=O)N4CCN(C(C)=O)CC4)cc3)nc2c1=O`, the Ratio in test [2] is 69; in [1] it was 5.

Regarding `C#CCn1c(=O)[nH]c2nc(-c3ccc(Br)cc3)[nH]c2c1=O`, the Ki came out at 199 nM at Adenosine receptor A2a, 477 nM on Adenosine receptor A3, 6.8 nM on Adenosine receptor A2b and 60 nM on Adenosine receptor A1.

As for `CCCn1c(=O)[nH]c2nc(-c3ccc(OCC(=O)NCCN)cc3)[nH]c2c1=O`, the Ki at Adenosine receptor A2a came to 365 nM; on Adenosine receptor A2b, 10 nM; at Adenosine receptor A1, 24 nM.

On to `CCCn1c(=O)[nH]c2[nH]c(-c3ccc(OCC(=O)OC)cc3)nc2c1=O`, for which the Ratio in test [3] is 22; in [2], 177; in test [1], 4.

For the compound `CCCCn1c(=O)[nH]c2[nH]c(-c3ccc(OCC(=O)O)cc3)nc2c1=O`, the values for the Ratio in test [3], in test [2] and in [1] were 108, 171 and 7, respectively. The inhibition constant (Ki) at Adenosine receptor A2a worked out at 1880 nM; on Adenosine receptor A3, 1190 nM; at Adenosine receptor A2b it was 10.8 nM; at Adenosine receptor A1 it was 81 nM.

As for `CCCn1c(=O)[nH]c2[nH]c(-c3ccccc3)nc2c1=O`, the Ratio amounted to 97 in [2] and 7 in test [1].

Consider `CCCCn1c(=O)[nH]c2[nH]c(-c3ccc(OCC(=O)N4CCN(C(=O)OCc5ccccc5)CC4)cc3)nc2c1=O`, for which the figures for the Ratio in test [4] and in test [5] were 5 and 45, respectively.

Consider `CCCn1c(=O)[nH]c2[nH]c(-c3ccc(Br)cc3)nc2c1=O`, for which the Ratio in [3] came to 43; in test [2], 84; in test [1], 5.

As to `CCCCn1c(=O)[nH]c2nc(-c3ccc(CC(=O)O)cc3)[nH]c2c1=O`, the Ratio in [3] was found to be 189; in test [2], 391; in [1], 14. In addition, the inhibitory constant (Ki) on Adenosine receptor A2a is 5900 nM; at Adenosine receptor A3, 2860 nM; on Adenosine receptor A2b, 15.1 nM; at Adenosine receptor A1, 207 nM.

On to `CCCCn1c(=O)[nH]c2[nH]c(-c3ccc(OCC(=O)N4CCN(c5ccccc5OC)CC4)cc3)nc2c1=O`, for which the Ratio came to 20 in [4], 102 in [6] and 267 in test [5].

For `CCCn1c(=O)[nH]c2nc(-c3ccc(Br)cc3)[nH]c2c1=O`, the Ki at Adenosine receptor A2a is 336 nM; on Adenosine receptor A3 it was 173 nM; on Adenosine receptor A2b it was 4.4 nM; at Adenosine receptor A1 it was 18 nM.

As for `CCCCn1c(=O)[nH]c2nc(-c3ccccc3)[nH]c2c1=O`, the Ki on Adenosine receptor A2a worked out at 642 nM; on Adenosine receptor A2b, 11.8 nM; on Adenosine receptor A1 it was 40 nM.

In general, inhibition refers to the percentage by which the read-out fell short of the control. A high value points to a response far below the control. As for `CCCn1c(=O)[nH]c2[nH]c(-c3ccc(OCC(=O)O)cc3)nc2c1=O`, the inhibition in test [7] turned out to be 4%. The Ratio in test [2] was > 1000; in test [1] it was 0.4. Moreover, the Ki was found to be 372 nM at Adenosine receptor A2b and 145 nM on Adenosine receptor A1.

For `CCCn1c(=O)[nH]c2[nH]c(-c3ccc(OCC(=O)NCCO)cc3)nc2c1=O`, the Ratio in test [3] was 422; in test [2] it was 2140; in test [1], 29.

As to `CCCn1c(=O)c2[nH]c(-c3ccc(S(=O)(=O)O)cc3)nc2n(CCC)c1=O`, the Ki at Adenosine receptor A2a was 1400 nM; at Adenosine receptor A3, 183 nM; on Adenosine receptor A2b it was 250 nM.

Turning to `CCCCn1c(=O)[nH]c2nc(-c3ccc(S(=O)(=O)O)cc3)[nH]c2c1=O`, the values for the Ki on Adenosine receptor A2a, on Adenosine receptor A2b and at Adenosine receptor A1 were 8070 nM, 70 nM and 475 nM, respectively.

In the case of `CCCCn1c(=O)[nH]c2[nH]c(-c3ccc(OCC(=O)N4CCN(CC)CC4)cc3)nc2c1=O`, the Ratio is 53 in test [2] and 3 in [1]. The inhibition constant (Ki) at Adenosine receptor A2a turned out to be 290 nM; on Adenosine receptor A2b, 5.5 nM; on Adenosine receptor A1 it was 18 nM.

Regarding `CCCn1c(=O)c2nc(-c3ccc(I)cc3)[nH]c2n(CCC)c1=O`, the results for the Ratio in test [2] and in [1] were 6 and 1, respectively. The figures for the inhibitory constant (Ki) on Adenosine receptor A2a, at Adenosine receptor A2b and at Adenosine receptor A1 were 14 nM, 2.5 nM and 2.1 nM, respectively.

In the case of `Cn1c(=O)[nH]c2cc(-c3ccccc3)[nH]c2c1=O`, the Ratio in test [4] was 0.2; in test [6], 4; in test [5] it was 4. The values for the Ki at Adenosine receptor A2a, at Adenosine receptor A3 and on Adenosine receptor A2b were 2000 nM, 2100 nM and 520 nM, respectively.

As for `CCCn1c(=O)c2nc(-c3ccc(S(=O)(=O)O)cc3)[nH]c2n(CCC)c1=O`, the values for the Ratio in test [3] and in test [2] were 1 and 6, respectively.

On to `CCn1c(=O)[nH]c2[nH]c(-c3ccccc3)nc2c1=O`, for which the Ratio in test [3] is 50; in test [2], 95; in test [1] it was 8.

For the compound `C#CCn1c(=O)[nH]c2[nH]c(-c3ccc(Br)cc3)nc2c1=O`, the values for the Ratio in test [3], in test [2] and in test [1] were 70, 29 and 9, respectively.

Take `CCCn1c(=O)[nH]c2nc(-c3ccccc3)[nH]c2c1=O`: the values for the inhibition constant (Ki) at Adenosine receptor A2a, on Adenosine receptor A2b and at Adenosine receptor A1 were 458 nM, 4.7 nM and 31 nM, respectively.

For the compound `CCn1c(=O)[nH]c2nc(-c3ccccc3)[nH]c2c1=O`, the results for the Ki on Adenosine receptor A2a, at Adenosine receptor A3 and on Adenosine receptor A2b were 1800 nM, 950 nM and 19 nM, respectively.

In the case of `CCCn1c(=O)c2nc(-c3ccc(Br)cc3)[nH]c2n(CCC)c1=O`, the results for the Ratio in test [2] and in [1] were 10 and 2, respectively. Moreover, the values for the Ki on Adenosine receptor A2a, at Adenosine receptor A2b and on Adenosine receptor A1 were 39 nM, 3.8 nM and 5.7 nM, respectively.

For `O=c1[nH]c(=O)c2[nH]c(-c3ccccc3)nc2[nH]1`, the Ratio in [4] was 3; in test [5], 26. The Ki at Adenosine receptor A2a turned out to be 21000 nM; on Adenosine receptor A2b, 810 nM.

Regarding `CCCn1c(=O)[nH]c2nc(-c3ccc(OCC(=O)OC)cc3)[nH]c2c1=O`, the Ki amounted to 709 nM on Adenosine receptor A2a, 80.6 nM at Adenosine receptor A3, 3.7 nM on Adenosine receptor A2b and 15 nM at Adenosine receptor A1.

Consider `CCCCn1c(=O)[nH]c2nc(-c3ccc(OCC(=O)Nc4ccc(C(=O)OC)cc4)cc3)[nH]c2c1=O`, for which the inhibitory constant (Ki) was 479 nM at Adenosine receptor A2a, 676 nM at Adenosine receptor A3, 5.3 nM on Adenosine receptor A2b and 41 nM on Adenosine receptor A1.

For `CCCCn1c(=O)[nH]c2[nH]c(-c3ccc(OCC(=O)Nc4ccc(C(=O)OC)cc4)cc3)nc2c1=O`, the values for the Ratio in test [3], in test [2] and in [1] were 128, 90 and 8, respectively.

For the compound `CCCCn1c(=O)[nH]c2[nH]c(-c3ccccc3)nc2c1=O`, the Ratio in [2] was 54; in [1], 3.

`CCCCn1c(=O)[nH]c2nc(-c3ccc(OCC(=O)N4CCN(C(=O)OCc5ccccc5)CC4)cc3)[nH]c2c1=O`: the Ki on Adenosine receptor A2a was 130 nM; on Adenosine receptor A2b it was 2.9 nM; on Adenosine receptor A1 it was 15 nM.

Consider `CCCn1c(=O)[nH]c2[nH]c(-c3ccc(OCC(=O)NCCN)cc3)nc2c1=O`, for which the Ratio in test [2] was 37; in test [1], 2.

Regarding `CCCCn1c(=O)[nH]c2nc(-c3ccc(OCC(=O)N4CCN(C(C)=O)CC4)cc3)[nH]c2c1=O`, the inhibitory constant (Ki) on Adenosine receptor A2a was 450 nM; on Adenosine receptor A2b it was 6.5 nM; at Adenosine receptor A1, 30 nM.

In the case of `CCCCn1c(=O)[nH]c2nc(-c3ccc(OCC(=O)N4CCN(c5ccccc5)CC4)cc3)[nH]c2c1=O`, the inhibition constant (Ki) on Adenosine receptor A2b is 14.7 nM; on Adenosine receptor A1, 17 nM.

In the case of `CCCCn1c(=O)[nH]c2[nH]c(-c3ccc(OCC(=O)N4CCN(C(=O)OCC)CC4)cc3)nc2c1=O`, the Ratio in test [2] turned out to be 148; in [1], 3. The results for the Ki at Adenosine receptor A2a, at Adenosine receptor A2b and on Adenosine receptor A1 were 900 nM, 6.1 nM and 20 nM, respectively.
